# Results from ChEMBL document CHEMBL1142190, “Development of a new methodology for screening of human immunodeficiency virus type 1 microbicides based on real-time PCR quantification” (Antimicrob Agents Chemother, 2007).
# How the values were obtained:
# [1] = test system: Human immunodeficiency virus 1; experiment: Inhibition of reverse transcriptase RTY18C mutant in HIV1 Z6gpt assessed as inhibition of ssDNA synthesis
# [2] = molecular target: Human immunodeficiency virus type 1 reverse transcriptase (Human immunodeficiency virus 1) (UniProt Q72547); settings: 10 uM
# Description: Inhibition of reverse transcriptase assessed as decrease in ssDNA level in cell free virion HIV1 by NERT-based real-time PCR at 10 uM
structure (smiles),measurement,setting,value
Cc1ccnc2c1NC(=O)c1cccnc1N2C1CC1,Activity,[1],256 µM
same,inhibition,[2],75%
